# Results published in US20040058898A1, “Pharmaceutical composition for alleviating the violence of a mammal comprising nortestosterone derivatives” (priority 2002, published 2004).
# Assays:
# Type in all cases: in vivo
# [1] = tested on: male ostriches which violently behaved, cried and did not take feed; experiment: Alleviation of the violence and stimulation of the appetite in male ostrich; conditions: for Alleviation of the violence and stimulation of the appetite: results compared with 17β-decanoate-4-estren-3-one / Alleviation of the violence and stimulation of the appetite according to administered amount: results compared with 17β-decanoate-4-estren-3-one: male ostrich; for Alleviation of the violence and stimulation of the appetite: results compared with 17β-decanoate-4-estren-3-one: same procedures as Experimental Example 1 (100 kg, intramuscular, 100 mg), Example 1 result: alleviated violence and stimulated appetite; for Alleviation of the violence and stimulation of the appetite according to administered amount: results compared with 17β-decanoate-4-estren-3-one: same procedures as Experimental Example 2 (100 kg, intramuscular, 10 to 1000 mg), Example 2 result: alleviated violence and stimulated appetite at every amount
# Source text: (§1) After administration, their behaviors and appetites were observed.
# [2] = tested on: male horses which violently behaved, cried and did not take feed; experiment: Alleviation of the violence and stimulation of the appetite in male horse; conditions: male horses 200 kg, 20, 40, 100, 200, 300, 400, 1000 and 2000 mg (0.1 to 10 mg per kg), Experimental Example 25, summary of Table 8
# Source text: as §1
# [3] = tested on: male dogs which violently behaved, cried and did not take feed; experiment: Alleviation of the violence and stimulation of the appetite in male dog; conditions: male dogs 40 kg, 4, 8, 20, 40, 60, 80, 200 and 400 mg (0.1 to 10 mg per kg), Experimental Example 21, summary of Table 4
# Source text: as §1
# [4] = tested on: male goats which violently behaved, cried and did not take feed; experiment: Alleviation of the violence and stimulation of the appetite in male goat; conditions: male goats 40 kg, 4, 8, 20, 40, 60, 80, 200 and 400 mg (0.1 to 10 mg per kg), Experimental Example 27, summary of Table 10
# Source text: as §1
# [5] = tested on: male cats which violently behaved, cried and did not take feed; experiment: Alleviation of the violence and stimulation of the appetite in male cat; conditions: male cats 1 kg, 0.1, 0.2, 0.5, 1.0, 1.5, 2.0, 5.0 and 10 mg (0.1 to 10 mg per kg), Experimental Example 23, summary of Table 6
# Source text: as §1
# [6] = male ostriches 100 kg, 10, 20, 50, 100, 150, 200, 500 and 1000 mg (0.1 to 10 mg per kg), Experimental Example 2, summary of Table 2
structure (smiles),measurement,setting,value
C[C@]12CC[C@H]3[C@@H](CCC4=CC(=O)CC[C@@H]43)[C@@H]1CC[C@@H]2OC(=O)c1ccccc1 [17β-benzoate-4-estren-3-one],Alleviation of the violence and stimulation of the appetite: results compared with 17β-decanoate-4-estren-3-one,[1],the same with the result of the experiment using 17β-decanoate-4-estren-3-one in Experimental Example 1
same,Alleviation of the violence and stimulation of the appetite according to administered amount: results compared with 17β-decanoate-4-estren-3-one,[1],the same with the result of the experiment using 17β-decanoate-4-estren-3-one in Experimental Example 2
C[C@]12CC[C@H]3[C@@H](CCC4=CC(=O)CC[C@@H]43)[C@@H]1CC[C@@H]2OC(=O)C1CCCCC1 [17β-cyclohexanecarboxylate-4-estren-3-one],Alleviation of the violence and stimulation of the appetite: results compared with 17β-decanoate-4-estren-3-one,[1],the same with the result of the experiment using 17β-decanoate-4-estren-3-one in Experimental Example 1
same,Alleviation of the violence and stimulation of the appetite according to administered amount: results compared with 17β-decanoate-4-estren-3-one,[1],the same with the result of the experiment using 17β-decanoate-4-estren-3-one in Experimental Example 2
C[C@]12CC[C@H]3[C@@H](CCC4=CC(=O)CC[C@@H]43)[C@@H]1CC[C@@H]2OC(=O)CCC1CCCCC1 [17β-cyclohexylpropinoate-4-estren-3-one],Alleviation of the violence and stimulation of the appetite: results compared with 17β-decanoate-4-estren-3-one,[1],the same with the result of the experiment using 17β-decanoate-4-estren-3-one in Experimental Example 1
CCCCCCCCCCCC(=O)O[C@H]1CC[C@H]2[C@@H]3CCC4=CC(=O)CC[C@@H]4[C@H]3CC[C@]12C [17β-dodecanoate-4-estren-3-one],Alleviation of the violence and stimulation of the appetite: results compared with 17β-decanoate-4-estren-3-one,[1],the same with the result of the experiment using 17β-decanoate-4-estren-3-one in Experimental Example 1
same,Alleviation of the violence and stimulation of the appetite according to administered amount: results compared with 17β-decanoate-4-estren-3-one,[1],the same with the result of the experiment using 17β-decanoate-4-estren-3-one in Experimental Example 2
C[C@]12CC[C@H]3[C@@H](CCC4=CC(=O)CC[C@@H]43)[C@@H]1CC[C@@H]2O [17β-hydroxy-4-estren-3-one],appetite after intramuscular injection,[2],appetite stimulated
same,feed intake after administration,[2],increased feed intake
same,violence of estrus after intramuscular injection,[2],violence of estrus alleviated
same,appetite after intramuscular injection,[3],appetite stimulated
same,feed intake after administration,[3],increased feed intake
same,violence of estrus after intramuscular injection,[3],violence of estrus alleviated
same,Alleviation of the violence and stimulation of the appetite: results compared with 17β-decanoate-4-estren-3-one,[1],the same with the result of the experiment using 17β-decanoate-4-estren-3-one in Experimental Example 1
same,Alleviation of the violence and stimulation of the appetite according to administered amount: results compared with 17β-decanoate-4-estren-3-one,[1],the same with the result of the experiment using 17β-decanoate-4-estren-3-one in Experimental Example 2
same,appetite after intramuscular injection,[1]; [6],appetite stimulated
same,feed intake after administration,[1]; [6],increased feed intake
same,violence of estrus after intramuscular injection,[1]; [6],violence of estrus alleviated
same,appetite after intramuscular injection,[4],appetite stimulated
same,feed intake after administration,[4],increased feed intake
same,violence of estrus after intramuscular injection,[4],violence of estrus alleviated
same,appetite after intramuscular injection,[5],appetite stimulated
same,feed intake after administration,[5],increased feed intake
same,violence of estrus after intramuscular injection,[5],violence of estrus alleviated
CCCCCCOc1ccc(CCC(=O)O[C@H]2CC[C@H]3[C@@H]4CCC5=CC(=O)CC[C@@H]5[C@H]4CC[C@]23C)cc1 [17β-p-hexyloxyphenylpropionate-4-estren-3-one],Alleviation of the violence and stimulation of the appetite: results compared with 17β-decanoate-4-estren-3-one,[1],the same with the result of the experiment using 17β-decanoate-4-estren-3-one in Experimental Example 1
same,Alleviation of the violence and stimulation of the appetite according to administered amount: results compared with 17β-decanoate-4-estren-3-one,[1],the same with the result of the experiment using 17β-decanoate-4-estren-3-one in Experimental Example 2
C[C@]12CC[C@H]3[C@@H](CCC4=CC(=O)CC[C@@H]43)[C@@H]1CC[C@@H]2OC(=O)CCc1ccccc1 [17β-phenpropionate-4-estren-3-one],Alleviation of the violence and stimulation of the appetite: results compared with 17β-decanoate-4-estren-3-one,[1],the same with the result of the experiment using 17β-decanoate-4-estren-3-one in Experimental Example 1
same,Alleviation of the violence and stimulation of the appetite according to administered amount: results compared with 17β-decanoate-4-estren-3-one,[1],the same with the result of the experiment using 17β-decanoate-4-estren-3-one in Experimental Example 2
CCC(=O)O[C@H]1CC[C@H]2[C@@H]3CCC4=CC(=O)CC[C@@H]4[C@H]3CC[C@]12C [17β-propionate-4-estren-3-one],Alleviation of the violence and stimulation of the appetite: results compared with 17β-decanoate-4-estren-3-one,[1],the same with the result of the experiment using 17β-decanoate-4-estren-3-one in Experimental Example 1
same,Alleviation of the violence and stimulation of the appetite according to administered amount: results compared with 17β-decanoate-4-estren-3-one,[1],the same with the result of the experiment using 17β-decanoate-4-estren-3-one in Experimental Example 2
